{"source": "patent US9663473B2", "about": "(Actelion Pharmaceuticals Ltd, priority 2013, dated 2017)", "note": "Where a name gives a salt, the structure may show the parent alone.", "data": [{"molecular_target": "T1, recombinant human ALX receptor (Homo sapiens, UniProt P25090)", "T1 construct": "expressed in transfected cells; host or cells: HEK293 (HEK293-hALXR-Gα16)", "T1 sequence (P25090 1-351)": "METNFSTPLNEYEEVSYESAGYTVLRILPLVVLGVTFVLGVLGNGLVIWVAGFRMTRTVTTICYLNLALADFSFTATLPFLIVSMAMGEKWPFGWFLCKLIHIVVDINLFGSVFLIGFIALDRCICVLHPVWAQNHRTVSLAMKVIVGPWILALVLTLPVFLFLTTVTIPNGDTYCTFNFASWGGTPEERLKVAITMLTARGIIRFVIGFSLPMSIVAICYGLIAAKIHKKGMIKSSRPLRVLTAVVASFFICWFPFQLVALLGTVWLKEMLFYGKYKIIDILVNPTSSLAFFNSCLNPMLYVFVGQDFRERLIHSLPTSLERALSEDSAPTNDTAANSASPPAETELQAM", "assay": "Intracellular calcium measurements (FLIPR), ALX receptor agonistic activity", "type": "cell-based", "settings": "HEK293-hALXR-Gα16 cells, Fluo-4 calcium signal, normalized to WKYMVm 10 nM", "procedure,_shortened": "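Agonist-induced calcium flux was read by FLIPR (488/540 nm) as baseline-subtracted peak emission, expressed relative to WKYMVm at 10 nM final. Cells used: HEK293-hALXR-Gα16, dye-loaded 60 min at 37° C. with 1 μM Fluo-4 AM before compound dose-response addition.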", "units": {"EC50": "nM"}, "values": [{"smiles": "COc1ccc(CC(NC(=O)NCCc2c(C)noc2C)c2nc3ccccc3[nH]2)cc1", "note": "(stereo not shown) [Example 42, 1-(1-(1H-Benzo[d]imidazol-2-yl)-2-(4-methoxyphenyl)ethyl)-3-(2-(3,5-dimethylisoxazol-4-yl)ethyl)urea]", "EC50": 814}, {"smiles": "COc1ccc(C[C@@H](NC(=O)NCC2CCN(C(=O)OC(C)(C)C)CC2)c2nc3ccccc3[nH]2)cc1", "note": "[Example 146, (R)-tert-Butyl 4-((3-(1-(1H-benzo[d]imidazol-2-yl)-2-(4-methoxyphenyl)ethyl)ureido)methyl)piperidine-1-carboxylate]", "EC50": 512}, {"smiles": "COc1ccc(C[C@@H](NC(=O)NC2CCN(C3CC3)CC2)c2nc3ccccc3[nH]2)cc1", "note": "[Example 71, (R)-1-(1-(1H-Benzo[d]imidazol-2-yl)-2-(4-methoxyphenyl)ethyl)-3-(1-cyclopropylpiperidin-4-yl)urea]", "EC50": 53}, {"smiles": "COc1ccc(C[C@@H](NC(=O)NCc2ccccn2)c2nc3ccccc3[nH]2)cc1", "note": "[Example 268, (R)-1-(1-(1H-Benzo[d]imidazol-2-yl)-2-(4-methoxyphenyl)ethyl)-3-(pyridin-2-ylmethyl)urea]", "EC50": 659}, {"smiles": "COc1ccc(C[C@@H](NC(=O)NC2(C)COC2)c2nc3ccccc3[nH]2)cc1", "note": "[Example 109, (R)-1-(1-(1H-Benzo[d]imidazol-2-yl)-2-(4-methoxyphenyl)ethyl)-3-(3-methyloxetan-3-yl)urea]", "EC50": 634}, {"smiles": "COc1ccc(CC(NC(=O)N[C@H]2CC[C@H](O)CC2)c2nc3ccccc3[nH]2)c(F)c1", "note": "(relative stereo) [Example 210, 1-(1-(1H-Benzo[d]imidazol-2-yl)-2-(2-fluoro-4-methoxyphenyl)ethyl)-3-(trans-4-hydroxycyclohexyl)urea]", "EC50": 1.9}, {"smiles": "COc1ccc(C[C@@H](NC(=O)NCCc2ccncc2)c2nc3ccccc3[nH]2)cc1", "note": "[Example 295, (R)-1-(1-(1H-Benzo[d]imidazol-2-yl)-2-(4-methoxyphenyl)ethyl)-3-(2-(pyridin-4-yl)ethyl)urea]", "EC50": 645}, {"smiles": "COc1ccc(C[C@@H](NC(=O)N[C@H]2CC[C@H](O)CC2)c2nc3cc(OC)ccc3[nH]2)cc1", "note": "[Example 84, 1-(trans-4-Hydroxycyclohexyl)-3-((R)-1-(5-methoxy-1H-benzo[d]imidazol-2-yl)-2-(4-methoxyphenyl)ethyl)urea]", "EC50": 11}, {"smiles": "COc1ccc(C[C@@H](NC(=O)N[C@H]2CCCC[C@@H]2O)c2nc3ccccc3[nH]2)cc1", "note": "(relative stereo) [Example 24, 1-((R)-1-(1H-Benzo[d]imidazol-2-yl)-2-(4-methoxyphenyl)ethyl)-3-((1 S*,2S*)-2-hydroxycyclohexyl)urea]", "EC50": 24}, {"smiles": "COc1ccc(C[C@@H](NC(=O)Nc2ccon2)c2nc3ccccc3[nH]2)cc1", "note": "[Example 379, (R)-1-(1-(1H-Benzo[d]imidazol-2-yl)-2-(4-methoxyphenyl)ethyl)-3-(isoxazol-3-yl)urea hydrochloride]", "EC50": 1090}, {"smiles": "C[C@]1(O)CC[C@H](NC(=O)NC(Cc2ccc(C(F)(F)F)c(F)c2)c2nc3ccccc3[nH]2)CC1", "note": "(mixture of isomers) [Example 239, 1-(1-(1H-Benzo[d]imidazol-2-yl)-2-(3-fluoro-4-(trifluoromethyl)phenyl)ethyl)-3-(trans-4-hydroxy-4-methylcyclohexyl)urea]", "EC50": 77}, {"smiles": "O=C(NC(Cc1ccc(C(F)(F)F)c(F)c1)c1nc2ccccc2[nH]1)N[C@H]1CC[C@H](O)CC1", "note": "(relative stereo) [Example 237, 1-(1-(1H-Benzo[d]imidazol-2-yl)-2-(3-fluoro-4-(trifluoromethyl)phenyl)ethyl)-3-(trans-4-hydroxycyclohexyl)urea]", "EC50": 36}, {"smiles": "COc1ccc(C[C@@H](NC(=O)N[C@H]2CC[C@H](C(=O)O)CC2)c2nc3ccccc3[nH]2)cc1", "note": "[Example 225, trans-4-(3-((R)-1-(1H-Benzo[d]imidazol-2-yl)-2-(4-methoxyphenyl)ethyl)ureido)cyclohexanecarboxylic acid, lithium salt]", "EC50": 48}, {"smiles": "COc1ccc(CC(NC(=O)N[C@H]2CC[C@H](O)CC2)c2nc3ncncc3[nH]2)cc1", "note": "(relative stereo) [Example 426, 1-(trans-4-hydroxycyclohexyl)-3-(2-(4-methoxyphenyl)-1-(7H-purin-8-yl)ethyl)urea]", "EC50": 374}, {"smiles": "COc1cc(F)c(CC(NC(=O)N[C@H]2CC[C@H](O)CC2)c2nc3cc(F)ccc3[nH]2)c(F)c1", "note": "(single isomer, unassigned; ent-1) [Example 366, 1-(2-(2,6-Difluoro-4-methoxyphenyl)-1-(5-fluoro-1H-benzo[d]imidazol-2-yl)ethyl)-3-(trans-4-hydroxycyclohexyl)urea (ent-1)]", "EC50": 0.4}, {"smiles": "COc1ccc(CC(NC(=O)NC2CCC(C)(O)CC2)c2nc3ccccc3[nH]2)cc1F", "note": "(single isomer, unassigned; ent-1) [Example 308, 1-(1-(1H-Benzo[d]imidazol-2-yl)-2-(3-fluoro-4-methoxyphenyl)ethyl)-3-(trans-4-hydroxy-4-methylcyclohexyl)urea (ent-1)]", "EC50": 2.7}, {"smiles": "COc1ccc(CC(NC(=O)Nc2cc(C)nn2C)c2nc3ccccc3[nH]2)cc1", "note": "(stereo not shown) [Example 416, 1-(1-(1H-benzo[d]imidazol-2-yl)-2-(4-methoxyphenyl)ethyl)-3-(1,3-dimethyl-1H-pyrazol-5-yl)urea]", "EC50": 89}, {"smiles": "COc1ccc(C[C@@H](NC(=O)N[C@H]2CC[C@@H](C(=O)OC)CC2)c2nc3ccccc3[nH]2)cc1", "note": "[Example 223, cis-Methyl 4-(3-((R)-1-(1H-benzo[d]imidazol-2-yl)-2-(4-methoxyphenyl)ethyl)ureido)cyclohexanecarboxylate]", "EC50": 178}, {"smiles": "COc1ccc(C[C@@H](NC(=O)NC2CN3CCC2CC3)c2nc3ccccc3[nH]2)cc1", "note": "(stereo partly drawn) [Example 89, 1-((R)-1-(1H-Benzo[d]imidazol-2-yl)-2-(4-methoxyphenyl)ethyl)-3-(quinuclidin-3-yl)urea]", "EC50": 15}, {"smiles": "COc1ccc(CC(NC(=O)N[C@H]2CC[C@H](O)CC2)c2nc3ccc(F)cc3[nH]2)c(F)c1", "note": "(single isomer, unassigned; ent-2) [Example 370, 1-(1-(6-Fluoro-1H-benzo[d]imidazol-2-yl)-2-(2-fluoro-4-methoxyphenyl)ethyl)-3-(trans-4-hydroxycyclohexyl)urea (ent-2)]", "EC50": 717}, {"smiles": "COc1ccc(C[C@@H](NC(=O)NCC2CCN(C)CC2)c2nc3ccccc3[nH]2)cc1", "note": "[Example 147, (R)-1-(1-(1H-Benzo[d]imidazol-2-yl)-2-(4-methoxyphenyl)ethyl)-3-((1-methylpiperidin-4-yl)methyl)urea]", "EC50": 493}, {"smiles": "COc1ccc(C[C@@H](NC(=O)NC(C)c2ccncn2)c2nc3ccccc3[nH]2)cc1", "note": "(stereo partly drawn) [Example 386, 1-((R)-1-(1H-Benzo[d]imidazol-2-yl)-2-(4-methoxyphenyl)ethyl)-3-(1-(pyrimidin-4-yl)ethyl)urea]", "EC50": 1240}, {"smiles": "COc1ccc(C[C@@H](NC(=O)Nc2cc(C3CC3)nn2C)c2nc3ccccc3[nH]2)cc1", "note": "[Example 314, (R)-1-(1-(1H-Benzo[d]imidazol-2-yl)-2-(4-methoxyphenyl)ethyl)-3-(3-cyclopropyl-1-methyl-1H-pyrazol-5-yl)urea]", "EC50": 14}, {"smiles": "COc1ccc(C[C@@H](NC(=O)N2CC3CC2CN3C(=O)OC(C)(C)C)c2nc3ccccc3[nH]2)cc1", "note": "(stereo partly drawn) [Example 382, tert-Butyl 5-(((R)-1-(1H-benzo[d]imidazol-2-yl)-2-(4-methoxyphenyl)ethyl)carbamoyl)-2,5-diazabicyclo[2.2.1]heptane-2-carboxylate]", "EC50": 1900}, {"smiles": "O=C(NC(Cc1ccc(C(F)(F)F)cc1F)c1nc2ccccc2[nH]1)NC12CCC(O)(CC1)CC2", "note": "(single isomer, unassigned; ent-1) [Example 362, 1-(1-(1H-Benzo[d]imidazol-2-yl)-2-(2-fluoro-4-(trifluoromethyl)phenyl)ethyl)-3-(4-hydroxybicyclo[2.2.2]octan-1-yl)urea (ent-1)]", "EC50": 27}, {"smiles": "COc1ccc(C[C@@H](NC(=O)NCCc2ccccc2C(F)(F)F)c2nc3ccccc3[nH]2)cc1", "note": "[Example 274, (R)-1-(1-(1H-Benzo[d]imidazol-2-yl)-2-(4-methoxyphenyl)ethyl)-3-(2-(trifluoromethyl)phenethyl)urea]", "EC50": 115}, {"smiles": "COc1ccc(CC(NC(=O)NC2CCC2)c2nc3ccccc3[nH]2)cc1", "note": "(stereo not shown) [Example 11, 1-(1-(1H-Benzo[d]imidazol-2-yl)-2-(4-methoxyphenyl)ethyl)-3-cyclobutylurea]", "EC50": 62}, {"smiles": "COc1ccc(C[C@@H](NC(=O)N2CC3CCC2CN3C(=O)OC(C)(C)C)c2nc3ccccc3[nH]2)cc1", "note": "(stereo partly drawn) [Example 112, tert-Butyl 5-(((R)-1-(1H-benzo[d]imidazol-2-yl)-2-(4-methoxyphenyl)ethyl)carbamoyl)-2,5-diazabicyclo[2.2.2]octane-2-carboxylate]", "EC50": 109}, {"smiles": "O=C(N[C@H](Cc1ccc(CF)cc1)c1nc2ccccc2[nH]1)N[C@H]1CC[C@H](O)CC1", "note": "[Example 364, 1-((R)-1-(1H-Benzo[d]imidazol-2-yl)-2-(4-(fluoromethyl)phenyl)ethyl)-3-(trans-4-hydroxycyclohexyl)urea]", "EC50": 10}, {"smiles": "COc1ccc(CC(NC(=O)NCc2csc(C)n2)c2nc3ccccc3[nH]2)cc1", "note": "(stereo not shown) [Example 48, 1-(1-(1H-Benzo[d]imidazol-2-yl)-2-(4-methoxyphenyl)ethyl)-3-((2-methylthiazol-4-yl)methyl)urea]", "EC50": 1010}, {"smiles": "COC(=O)N1CCC(NC(=O)N[C@H](Cc2ccc(OC)cc2)c2nc3ccccc3[nH]2)CC1", "note": "[Example 139, (R)-Methyl 4-(3-(1-(1H-benzo[d]imidazol-2-yl)-2-(4-methoxyphenyl)ethyl)ureido)piperidine-1-carboxylate]", "EC50": 414}]}]}
